Publication PMC9497135, “Structure-Based Study to Overcome Cross-Reactivity of Novel Androgen Receptor Inhibitors” (Cells, 2022)

Columns and labels:
wild type AR LBD = biological target: T1, wild type AR LBD (Homo sapiens, UniProt P10275); experiment: Biolayer interferometry (BLI), wild type LBD; assay type: binding
T1 construct: made in house; host or cells: E. coli BL21-DE3 co-transformed with pBirACm
T1 sequence (P10275 669-900 limits assumed): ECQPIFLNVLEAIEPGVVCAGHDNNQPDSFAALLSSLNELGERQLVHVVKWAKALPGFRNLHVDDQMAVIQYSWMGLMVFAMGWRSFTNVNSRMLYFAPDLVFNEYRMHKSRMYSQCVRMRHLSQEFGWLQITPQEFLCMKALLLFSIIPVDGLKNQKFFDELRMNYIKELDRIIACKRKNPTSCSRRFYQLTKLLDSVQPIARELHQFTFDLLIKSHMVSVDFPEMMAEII
Method: The direct reversible interaction between small molecules and the AR was quantified by BLI using OctetRED (ForteBio, Fremont, CA, USA). The wild type and T878A-LDB in fusion with an N-terminal (His)6-avidin ([…]) tag were expressed in E. coli BL21-DE3 cells co-transformed with pBirACm plasmid (Avidity), which expresses a biotin ligase leading to the biotynilation of the avidin tag on the LBD. Cells were grown in LB media at 37 °C to an OD600nm = 0.5 and then induced with 0.5 mM isopropyl-β-D-thiogalactoside. A measure of 20 µM of dihydrotestosterone (DHT) and 0.15 mM biotin were added and the cells were incubated at 16 °C for 18 to 20 h. Cells were then resuspended and lysed in buffer containing 500 mM Li2SO4, 50mM HEPES pH7.2, 10% Glycerol, 0.1% Octyl-beta-Glucoside, 20 µM of DHT, 5 mM β-mercaptoethanol, 10 mM imidazole and 0.1 mM phenylmethanesulfonyl fluoride. […] After an overnight dialysis against 150 mM Li2SO4, 50 mM HEPES pH7.2, 10% Glycerol, 0.1% Octyl-beta-Glucoside, 20 µM of DHT and 0.2 mM tris(2-carboxyethyl)phosphine, purified proteins at 50 µg/mL were bound to the super-streptavidin sensors overnight at 4 °C. The assay was performed at 20 °C in the dialysis buffer supplemented with 5% dimethyl sulfoxide (DMSO) which was also used as our reference measurement.

T878A-AR mutant = biological target: T2, T878A-AR mutant (Homo sapiens, UniProt P10275, T878A); experiment: Luciferase reporter assay, PC3 cells transfected with T878A-AR; assay type: cell-based; conditions: in the presence and absence of R1881
T2 construct: Full-length human wild type AR was cloned into pcDNA3.1 expression plasmid; expressed in transfected cells; host or cells: PC3
T2 sequence (P10275 1-920 T878A): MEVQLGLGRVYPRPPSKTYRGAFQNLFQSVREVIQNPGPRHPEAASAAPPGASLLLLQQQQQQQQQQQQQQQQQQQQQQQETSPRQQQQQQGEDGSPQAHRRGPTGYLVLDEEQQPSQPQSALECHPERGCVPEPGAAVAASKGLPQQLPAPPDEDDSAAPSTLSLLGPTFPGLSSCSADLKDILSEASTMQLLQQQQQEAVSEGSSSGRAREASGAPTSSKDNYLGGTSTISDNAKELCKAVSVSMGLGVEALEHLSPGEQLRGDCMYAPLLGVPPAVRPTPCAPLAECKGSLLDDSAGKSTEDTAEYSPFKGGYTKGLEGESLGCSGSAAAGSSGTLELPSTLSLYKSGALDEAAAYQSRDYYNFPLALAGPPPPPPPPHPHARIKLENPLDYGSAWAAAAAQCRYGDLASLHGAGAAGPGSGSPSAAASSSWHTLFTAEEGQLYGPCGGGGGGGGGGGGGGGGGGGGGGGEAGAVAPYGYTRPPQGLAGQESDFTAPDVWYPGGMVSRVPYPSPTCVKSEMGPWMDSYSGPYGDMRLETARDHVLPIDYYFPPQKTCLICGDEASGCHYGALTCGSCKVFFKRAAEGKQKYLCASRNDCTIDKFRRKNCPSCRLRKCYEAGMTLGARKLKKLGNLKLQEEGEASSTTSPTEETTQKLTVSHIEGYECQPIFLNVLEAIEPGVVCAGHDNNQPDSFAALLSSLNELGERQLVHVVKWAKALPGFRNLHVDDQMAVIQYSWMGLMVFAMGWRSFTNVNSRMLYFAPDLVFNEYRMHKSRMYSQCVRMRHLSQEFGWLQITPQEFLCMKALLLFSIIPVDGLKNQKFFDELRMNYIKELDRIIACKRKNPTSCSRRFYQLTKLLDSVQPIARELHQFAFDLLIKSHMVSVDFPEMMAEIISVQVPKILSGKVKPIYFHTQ
Method: Full-length human wild type AR was cloned into pcDNA3.1 expression plasmid (Invitrogen, Waltham, MA, USA) with a CMV promoter. The T878A mutant (T878A-AR) was generated with the Quikchange Mutagenesis Kit (Stratagene, San Diego, CA, USA) using hARWT plasmid as a template. Androgen-starved PC3 cells were seeded in 96-well plates (3000 cells/well) in RPMI 1640 + 5% CSS for 24 h followed by transfection with 50 ng of hARWT or hART878A along with 50 ng of ARR3tk-luciferase reporter construct (100 ng total plasmid DNA) and 0.3 µL/well TransIT20/20 transfection reagent (TT2020, Mirus, Madison, Wisconsin, WI, USA) for 48 h. […] Cell lysis was carried out with 60 µL 1X passive lysis buffer/well (Promega, Madison, Wisconsin, WI, USA). The luminescence from 20 µL of cell lysate and 50 µL of Luciferase assay reagent (Promega, Madison, Wisconsin, WI, USA) was recorded on a TECAN M200pro plate reader.

[1] = biological target: T3, AR (LNCaP cells, which carry the T878A AR mutation) (Homo sapiens, UniProt P10275, T878A); experiment: eGFP cellular AR transcription assay in LNCaP cells (LN-ARR2PB-eGFP); assay type: cell-based; conditions: LNCaP, with R1881, high concentrations
T3 construct: LNCaP cells, which carry the T878A AR mutation; endogenous in cells; host or cells: LNCaP (LN-ARR2PB-eGFP)
T3 sequence (P10275 1-920 T878A): T2 sequence (P10275 1-920 T878A)
Method: AR transcriptional activity was assayed as previously described. Briefly, LNCaP human prostate cancer cells (LN-ARR2PB-eGFP), stably transfected with eGFP reporter driven by an androgen responsive probasin-derived promoter (ARR2PB), were grown in phenol red free RPMI 1640 media supplemented with 5% charcoal stripped serum (CSS). After 5 days, the cells were plated into a 96-well plate (35,000 cells/well) with 0.1 nM of the synthetic androgen R1881 and increasing concentrations (0−100 μM) of test compounds. Fluorescence (excitation 485 nm, emission 535 nm) was measured after 3 days of incubation with the compounds.

[2] = tested on: prostate-specific antigen (PSA) expression in LNCaP cells; experiment: PSA assay in LNCaP cells; assay type: cell-based; conditions: Homo sapiens, 72 h, with R1881, 3 days
Method: The PSA assay was performed in parallel with the previous reporter eGFP assay and using the same plates. After 3 days incubation of LNCAP cells with R1881 and the test compound, 150 µL of the media was taken from each well and added to 150 µL of PBS. PSA levels were then evaluated using the Cobas e 411 analyzer instrument (Roche Diagnostics) according to the manufacturer’s instructions.

[3] = tested on: endogenous wild type AR in R1-AD1 cells; experiment: AR transcriptional activity in R1-AD1 cells; assay type: cell-based, human; conditions: 0.1 nM R1881

**Q.** Which results are given for `COc1c(F)cccc1-c1csc(N2CCOCC2)n1` [VPC14368, 4-(4-(3-fluoro-2-methoxyphenyl)thiazol-2-yl)morpholine]?
**A.** Direct binding to wild-type LBD by BLI (wild type AR LBD): confirmed at high concentrations and in a concentration-dependent manner; Concentration at which binding is seen (BLI) (wild type AR LBD; Figure 2, 50-300 µM tested): above 100 µM; Concentration above which transcriptional activation of the T878A AR mutant is induced (T878A-AR mutant): higher than 0.4 µM; Partial agonistic effect in eGFP assay [1]: partial agonistic effect; IC50 [2]: 130 nM; Agonistic effect in R1-AD1 cells [3]: not observed
